Reference: US11225465B2, “Albicidin derivatives, their use and synthesis” (TECHNISCHE UNIVERSITÄT BERLIN, priority 2017, dated 2022)
Values after ≈ are worked out from the molar mass of the structure shown.

Legend:
Assay in all cases: Microdilution assay, MIC
Assay type in all cases: cell-based
[1] = tested on: Bacillus subtilis DSM10; conditions: DSM10, 20 h, read-out: MIC B. subtilis DSM10
Experimental: (§1) The tests were performed using the micro dilution method.
(§2) The determination of MIC values was performed according to the ninth edition of the Approved Standard M07-A9 (CLSI. Methods for Dilution Antimicrobial Susceptibility Tests for Bacteria That Grow Aerobically; Approved Standard—Ninth Edition. CLSI document M07-A9. Wayne, Pa.: Clinical and Laboratory Standards Institute; 2012.)
(§3) The test was carried out for four different bacterial strains (E. coli DSM 1116 [gram negative], B. subtilis DSM 10 [gram positive], M. luteus DSM 1790 [gram positive], S. typhimurium TA100 [gram negative]). 20 μL of cryo stock of each strain were inoculated in 20 mL of LB media (Lysogeny broth: 10 g/L peptone, 5 g/L yeast extract, 5 g/L NaCl) followed by incubation over night at 37° C., 200 rpm. The test inoculum was adjusted by the 0.5 McFarland Standard (OD625 from 0.08 to 0.1). Within 15 min of preparation, the adjusted inoculum suspension was diluted in MHBII media (BBL T M Mueller-Hinton Broth II, Becton, Dickinson and Company, N.J./USA) so that each well contained approximately 5×10^5 CFU/mL in a final volume of 100 μL. 95 μL of the inoculum were applied per well and 5 μL of the (diluted) antibiotic substance were added.
(§4) Previously the dry antibiotic compounds were dissolved in DMSO (100%) with a concentration of 2560 μg/mL and the resulting stock solutions were further diluted in DMSO (100%). 5 μL of each antibiotic dilution were applied to the microdilution tray to reach final concentrations of 64 μg/mL to 0.008 μg/mL. One row of each well plate was left as a growth control without antibiotic substances and another row of the microdilution tray was used as sterility control (only MHB II-media). The antimicrobial effect of the solvent (DMSO) was tested by adding 5 μL DMSO to several wells without antibiotics.
(§5) Purity check and cell titer control were performed according to International Standard M07-A9 on Mueller-Hinton II Agar (Mueller Hinton II Broth, 15 g/L agar-agar).
(§6) Both microdilution trays and agar plates were incubated at 37° C. for 20 h and subsequently analyzed visually.

[2] = tested on: E. coli DSM 1116; conditions: Escherichia coli, DSM1116, 20 h, read-out: MIC E. coli DSM1116
Experimental: as §1, §2, §3, §4, §5, §6

[3] = tested on: Micrococcus luteus DSM1790; conditions: DSM1790, 20 h, read-out: MIC M. luteus DSM1790
Experimental: as §1, §2, §3, §4, §5, §6

[4] = tested on: S. typhimurium TA100; conditions: Salmonella enterica, 20 h, read-out: MIC S. typhimurium TA100
Experimental: as §1, §2, §3, §4, §5, §6

Compound | MIC [1] | MIC [2] | MIC [3] | MIC [4]
COc1c(NC(=O)c2ccc(NC(=O)c3ccc(NC(=O)[C@H](Cc4c[nH]cn4)NC(=O)c4ccc(NC(=O)/C(C)=C/c5ccc(O)cc5)cc4)cc3)c(OC)c2O)ccc(C(=O)O)c1O [Compound 1, L-His-albicidin] | 500 µg/mL (≈ 566 µM) | 63 µg/mL (≈ 71.3 µM) | 4000 µg/mL (≈ 4530 µM) | 31 µg/mL (≈ 35.1 µM)
COc1c(NC(=O)c2ccc(NC(=O)c3ccc(NC(=O)[C@H](CN(C)C)NC(=O)c4ccc(NC(=O)/C(C)=C/c5ccc(O)cc5)cc4)cc3)c(OC)c2O)ccc(C(=O)O)c1O [Compound 2, L-DMDAP-Albicidin] | 125 µg/mL (≈ 145 µM) | 125 µg/mL (≈ 145 µM) | 2000 µg/mL (≈ 2320 µM) | 31 µg/mL (≈ 36 µM)
COc1c(NC(=O)c2ccc(NC(=O)c3ccc(NC(=O)C(Cc4c[nH]nn4)NC(=O)c4ccc(NC(=O)/C(C)=C/c5ccc(O)cc5)cc4)cc3)c(OC)c2O)ccc(C(=O)O)c1O [Compound 3, L-Azahis-Albicidin] | 125 µg/mL (≈ 141 µM) | ≤ 16 µg/mL | 500 µg/mL (≈ 565 µM) | ≤ 16 µg/mL
COc1c(NC(=O)c2ccc(NC(=O)c3ccc(NC(=O)[C@@H](CN(C)C)NC(=O)c4ccc(NC(=O)/C(C)=C/c5ccc(O)cc5)cc4)cc3)c(OC)c2O)ccc(C(=O)O)c1O [Compound 16, D-DMDAP-Albicidin] | 1000 µg/mL (≈ 1160 µM) | 500 µg/mL (≈ 581 µM) | ≥ 8000 µg/mL | 250 µg/mL (≈ 290 µM)
